Test [1] concerns Escherichia coli. The test can be described thus: In vitro minimal inhibitory concentration against Escherichia coli was determined. It counts as functional.
Test [2] deals with T1, Peptide deformylase (Escherichia coli, UniProt Q9JN24).
T1 sequence (Q9JN24 whole entry): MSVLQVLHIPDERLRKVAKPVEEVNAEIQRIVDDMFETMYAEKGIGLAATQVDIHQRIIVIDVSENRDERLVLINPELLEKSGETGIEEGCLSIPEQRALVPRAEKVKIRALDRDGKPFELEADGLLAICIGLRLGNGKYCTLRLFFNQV
The test can be described thus: Binding affinity against Co(II)-substituted Escherichia coli peptide deformylase was determined.

The subject of test [3] is Bacillus subtilis. The test can be described thus: In vitro minimal inhibitory concentration against Bacillus subtilis was determined. It counts as functional.
In test [4] the target is T1, Peptide deformylase. Kind of test: Inhibitory concentration against peptide deformylase was determined.

The structures appear in SMILES notation. Converted amounts (≈) assume the structure as drawn.

One may read the MIC as the lowest concentration found to suppress growth. A lower MIC goes with inhibition by little substance. As usually defined, the Ki is the equilibrium dissociation constant of an inhibitor or competing ligand from its target. High values mean lower affinity, low ones higher affinity. With `CC(C)(C)[C@@H]1NC(=O)C(CN(O)C=O)CCCCCCCCCNC1=O` (some centres undefined), the MIC in test [1] was found to be 32 µM (≈ 11.8 µg/mL); in test [3] it was 4 µM (≈ 1.48 µg/mL). In test [2], the Ki was 0.67 nM.

The term IC50 denotes the concentration that gives 50% inhibition. High values mean weaker potency, low ones greater potency. `CCCCC(CN(O)C=O)C(=O)N[C@H](C(=O)N(C)C)C(C)(C)C` (some centres undefined) registered an IC50 in test [4] of 7 nM.

Values taken from ChEMBL document CHEMBL1145063, “Structure-based design of a macrocyclic inhibitor for peptide deformylase” (J Med Chem, 2003).
